Twelve compounds from US20110190280A1, “Thiazole And Oxazole Kinase Inhibitors” (priority 2007, published 2011) can be followed below.

Structures can show the parent of a compound that is named as a salt.

The subject of one assay is SK-MEL-3 tumor cells. The experiment in a line: Cell growth inhibition assay (CellTiter-Glo), SK-MEL-3.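 Further: human melanoma cells grown with compound for 3 days in 0.2% DMSO, total ATP read by luminescence as proxy for cell number, growth inhibition versus DMSO-treated wells.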 The following applies: Homo sapiens, SK-MEL3, 72 h, read-out: Activity in SK-MEL-3 Tumor Cells. (In general: In ATP-based viability assays light output follows the ATP content of the culture.)
A further assay concerns HT-29 tumor cells. Briefly: Cell growth inhibition assay (CellTiter-Glo), HT-29.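 Further: ATP content read by luminescence as proxy for cell number, growth inhibition versus DMSO vehicle wells, 0.2% DMSO final, nine serial threefold compound dilutions.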 Conditions: Homo sapiens, HT-29, 72 h, read-out: Activity in HT-29 Tumor Cells.
The next assay has as its target ErbB2 (Homo sapiens, UniProt P04626). Briefly: ErbB2 kinase autophosphorylation assay (peptide phosphorylation, HTRF). Conditions: 10 nM ErbB2, HTRF; class by pIC50. The format is biochemical. The procedure: (§1) A selection of compounds of the present invention were tested for inhibitory activity against EGFR and ErbB2 kinases in autophosphorylation assays.
(§2) The method measures the ability of the isolated enzyme to catalyse the transfer of the gamma-phosphate from ATP onto the tyrosine residue of a biotinylated synthetic peptide referenced “Peptide C” in Brignola, P. S., et al, (2002) J. Biol. Chem. 277(2):1576-1585. The extent of tyrosine phosphorylation was measured using an anti-phosphotyrosine antibody, and quantified by homogenous time-resolved fluorescence (HTRF).
(§3) Reactions were performed in black 384-well polystyrene flat-bottom plates in a final volume of 20 ul. Assays were performed by adding 10 μl of each of the following solutions, substrate Mix and enzyme mix: The Substrate mix contained 100 mM 3-[N-morpholino]propanesulfonic acid (MOPS) (pH 7.5), 2 mM MnCl2, 20 μM ATP, 0.01% Tween-20, 0.1 mg/mL (BSA), 0.8 uM peptide substrate, and 1 mM dithiothreitol. The enzyme mix contained 100 mM MOPS (pH7.5); 0.01% Tween-20; 0.1 mg/mL BSA, and either 0.8 nM EGFR, 10 nM ErbB2, or 1 nM ErbB4
(§4) The enzyme mix was added to the compound plates and the plates were incubated at 20° C. for 1 hour. The reactions were allowed to proceed for 90 minutes at 20° C. The reactions were then terminated by the addition of 20 μl 100 mM EDTA to each well. 40 μl/well of HTRF detection mix were added to the assay plates. The final concentrations of the detection reagents were: 100 mM HEPES (pH7.5), 0.1 mg/mL BSA, 15 nM streptavidin-labeled allophycocyanin (PerkinElmer), and 1 nM europium-labeled anti-phosphotyrosine antibody (PerkinElmer). Assay plates were left unsealed and were counted in a Wallac Multilabel Counter 1420 (PerkinElmer).
(§5) Compounds under analysis were dissolved in Me2SO to 1.0 mM and serially diluted 1 to 3 with Me2SO through twelve dilutions. 1 μl of each concentration was transferred to the corresponding well of an assay plate. This creates a final compound concentration range from 0.00027 to 47.6 μM.
(§6) The data for dose responses were plotted as % Inhibition calculated with the data reduction formula 100*(1−(U1−C2)/(C1−C2)) versus concentration of compound where U is the unknown value, C1 is the average control value obtained for 4.76% DMSO, and C2 is the average control value obtained for 0.035 M EDTA. Data were fitted with a curve described by:
(§7) where Vmax is the upper asymptote, Y2 is the Y intercept, and K is the IC50. The results for each compound were recorded as pIC50s, calculated as follows: […]
(§8) In the following table: • “+” indicates no pIC50 measurement greater than 6 against EGFR or ErbB2, • “++” indicates at least one pIC50 measurement greater than 6 against EGFR or ErbB2 but no measurement greater than pIC50 of 7; and • “+++” indicates at least one pIC50 measurement of greater than 7 against EGFR or ErbB2.
Background: In TR-FRET formats the signal depends on donor and acceptor labels being close together.

For the next assay, the system named is SK-MEL-28 tumor cells. The experiment in a line: Cell growth inhibition assay (CellTiter-Glo), SK-MEL-28.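 Further: luminescent total ATP as a proxy for cell number, threefold serial dilutions at 0.2% DMSO, percent growth inhibition versus DMSO vehicle control wells.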 Conditions: Homo sapiens, SK-MEL-28, 72 h, read-out: Activity in SK-MEL-28 Tumor Cells.
Another assay deals with A375P tumor cells. The experiment in a line: Cell growth inhibition assay (CellTiter-Glo), A375P.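 Further: total ATP luminescence used as proxy for cell number, serial threefold compound dilutions at 0.2% DMSO, growth inhibition expressed versus DMSO vehicle-treated wells.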 The following applies: Homo sapiens, 72 h, read-out: Activity in A375P Tumor Cells.
Another assay deals with Colo205 tumor cells. Briefly: Cell growth inhibition assay (CellTiter-Glo), Colo205.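 Further: growth measured via total ATP luminescence (CellTiter-Glo) as a proxy for cell number, inhibition expressed against DMSO-treated control wells, 3-day exposure at 0.2% final DMSO.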 Conditions: Homo sapiens, COLO 205, 72 h, read-out: Activity in Colo205 Tumor Cells.
The target in the next assay is EGFR (Homo sapiens, UniProt P00533). Briefly: EGFR kinase autophosphorylation assay (peptide phosphorylation, HTRF). The format is biochemical. Conditions: 0.8 nM EGFR, class by pIC50. The procedure:
as §1, §2, §3, §4, §5, §6, §7, §8

Another assay addresses B-Raf (Homo sapiens, UniProt P15056). Briefly: B-Raf Accelerated MEK ATPase assay (BRAMA). The format is biochemical. The following applies: BRAMA enzyme assay; class by pIC50; read-out: B-Raf Activity. The method, boiled down: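 B-Raf activity read as intrinsic MEK ATPase: catalytic activated RAF with non-phosphorylated MEK drives ADP formation, coupled through pyruvate kinase and lactate dehydrogenase to NADH oxidation, independent of ERK phosphorylation.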

EGFR, sequence (P00533 25-1210): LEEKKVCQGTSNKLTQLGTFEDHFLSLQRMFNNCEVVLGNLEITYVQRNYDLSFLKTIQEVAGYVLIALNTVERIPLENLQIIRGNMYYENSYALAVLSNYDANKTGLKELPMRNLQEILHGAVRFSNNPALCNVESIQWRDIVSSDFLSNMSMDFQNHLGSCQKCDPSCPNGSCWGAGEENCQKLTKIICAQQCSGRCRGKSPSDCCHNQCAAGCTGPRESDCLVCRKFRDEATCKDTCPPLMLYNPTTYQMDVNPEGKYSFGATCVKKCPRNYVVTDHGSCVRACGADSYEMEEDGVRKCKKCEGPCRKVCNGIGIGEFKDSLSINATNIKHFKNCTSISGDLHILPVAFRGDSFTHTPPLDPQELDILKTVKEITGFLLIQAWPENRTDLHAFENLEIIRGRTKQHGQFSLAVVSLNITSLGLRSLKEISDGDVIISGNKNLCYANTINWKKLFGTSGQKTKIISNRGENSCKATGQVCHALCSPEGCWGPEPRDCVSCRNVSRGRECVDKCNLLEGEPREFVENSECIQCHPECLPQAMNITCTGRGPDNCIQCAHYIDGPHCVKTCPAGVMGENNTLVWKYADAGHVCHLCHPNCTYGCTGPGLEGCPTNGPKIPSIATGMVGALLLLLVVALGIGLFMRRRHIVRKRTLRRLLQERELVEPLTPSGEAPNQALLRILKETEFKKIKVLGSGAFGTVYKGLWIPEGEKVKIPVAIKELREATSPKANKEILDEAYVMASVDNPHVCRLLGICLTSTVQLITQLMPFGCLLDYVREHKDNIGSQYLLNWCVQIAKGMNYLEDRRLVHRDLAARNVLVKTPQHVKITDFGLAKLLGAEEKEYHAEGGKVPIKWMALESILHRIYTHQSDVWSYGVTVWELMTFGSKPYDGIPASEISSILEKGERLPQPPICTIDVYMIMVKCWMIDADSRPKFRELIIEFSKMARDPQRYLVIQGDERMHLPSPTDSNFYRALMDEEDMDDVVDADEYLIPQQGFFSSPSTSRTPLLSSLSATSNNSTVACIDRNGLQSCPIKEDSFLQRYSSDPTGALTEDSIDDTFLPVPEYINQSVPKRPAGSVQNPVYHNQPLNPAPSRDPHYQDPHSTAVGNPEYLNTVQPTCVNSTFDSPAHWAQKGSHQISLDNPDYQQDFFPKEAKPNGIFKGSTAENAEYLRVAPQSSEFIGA
B-Raf, sequence (P15056 whole entry): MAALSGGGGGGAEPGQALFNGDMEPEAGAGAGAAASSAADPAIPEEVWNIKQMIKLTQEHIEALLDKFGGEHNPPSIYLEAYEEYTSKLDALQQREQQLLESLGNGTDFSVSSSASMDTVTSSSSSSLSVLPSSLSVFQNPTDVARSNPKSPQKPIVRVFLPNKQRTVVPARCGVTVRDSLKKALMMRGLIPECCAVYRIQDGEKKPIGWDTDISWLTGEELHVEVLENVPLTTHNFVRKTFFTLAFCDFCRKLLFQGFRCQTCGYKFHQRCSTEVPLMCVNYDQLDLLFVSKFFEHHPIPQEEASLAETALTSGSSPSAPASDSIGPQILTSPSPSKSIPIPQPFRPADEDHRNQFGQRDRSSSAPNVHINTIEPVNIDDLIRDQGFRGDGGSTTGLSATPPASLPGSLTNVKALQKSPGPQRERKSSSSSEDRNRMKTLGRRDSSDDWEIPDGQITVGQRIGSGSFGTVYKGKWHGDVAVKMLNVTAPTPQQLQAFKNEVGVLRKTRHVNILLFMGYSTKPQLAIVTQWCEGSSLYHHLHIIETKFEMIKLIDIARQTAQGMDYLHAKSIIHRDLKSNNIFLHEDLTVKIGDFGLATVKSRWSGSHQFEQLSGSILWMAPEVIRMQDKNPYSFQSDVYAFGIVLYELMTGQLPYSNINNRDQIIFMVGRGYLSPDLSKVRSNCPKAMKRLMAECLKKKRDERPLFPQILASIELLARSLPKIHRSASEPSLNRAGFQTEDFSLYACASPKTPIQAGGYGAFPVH
ErbB2, sequence (P04626 23-1255): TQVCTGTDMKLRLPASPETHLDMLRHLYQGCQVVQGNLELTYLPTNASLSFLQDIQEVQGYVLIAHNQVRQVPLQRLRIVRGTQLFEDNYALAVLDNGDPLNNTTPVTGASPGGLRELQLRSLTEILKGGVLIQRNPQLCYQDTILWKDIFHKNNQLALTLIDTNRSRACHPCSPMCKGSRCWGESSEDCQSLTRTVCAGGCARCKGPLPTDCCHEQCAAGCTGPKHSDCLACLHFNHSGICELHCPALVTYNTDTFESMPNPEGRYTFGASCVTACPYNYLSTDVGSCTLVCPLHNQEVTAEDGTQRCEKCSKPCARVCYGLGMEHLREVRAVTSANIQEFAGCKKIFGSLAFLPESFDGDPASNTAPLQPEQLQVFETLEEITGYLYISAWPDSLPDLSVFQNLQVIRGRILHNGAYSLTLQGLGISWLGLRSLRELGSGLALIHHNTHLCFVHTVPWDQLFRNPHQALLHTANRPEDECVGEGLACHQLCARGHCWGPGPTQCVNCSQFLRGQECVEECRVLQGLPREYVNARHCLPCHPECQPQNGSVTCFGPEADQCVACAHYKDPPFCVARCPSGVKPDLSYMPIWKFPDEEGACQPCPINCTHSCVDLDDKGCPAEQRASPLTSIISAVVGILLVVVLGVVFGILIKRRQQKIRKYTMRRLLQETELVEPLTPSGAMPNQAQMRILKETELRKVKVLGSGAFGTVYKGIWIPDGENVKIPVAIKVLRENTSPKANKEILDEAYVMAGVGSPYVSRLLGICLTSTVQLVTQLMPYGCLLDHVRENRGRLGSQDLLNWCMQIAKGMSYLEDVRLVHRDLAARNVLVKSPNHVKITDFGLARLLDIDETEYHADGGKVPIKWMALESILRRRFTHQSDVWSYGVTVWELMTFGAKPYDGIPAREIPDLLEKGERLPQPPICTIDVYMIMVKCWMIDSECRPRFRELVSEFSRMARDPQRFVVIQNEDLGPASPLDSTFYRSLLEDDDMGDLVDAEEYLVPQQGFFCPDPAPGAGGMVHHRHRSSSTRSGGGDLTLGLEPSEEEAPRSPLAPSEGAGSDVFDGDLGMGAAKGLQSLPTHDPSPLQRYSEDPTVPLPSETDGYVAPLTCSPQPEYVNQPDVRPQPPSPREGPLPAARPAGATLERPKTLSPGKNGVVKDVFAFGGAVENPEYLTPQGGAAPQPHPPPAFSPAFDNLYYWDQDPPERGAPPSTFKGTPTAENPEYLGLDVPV
Experimental for HT-29 tumor cells: Cell Growth Inhibition Assays Human colon tumor cells (Colo205) were cultured in RPMI (Mediatech 50-020-PB) containing 10% FBS and 1% penicillin-streptomycin. […] Human melanoma cancer cells (A375-F11S) were cultured in RPMI (Mediatech 50-020-PB) containing 10% FBS, 1% sodium pyruvate, and 1% penicillin-streptomycin. Human colon cancer cells (HT-29) were cultured in high glucose DMEM (Mediatech 50-013-PB) containing 10% FBS and 1% penicillin-streptomycin. Human melanoma cancer cells (SK-MEL-3) were cultured in McCoy's 5A (50-025-PB) containing 15% FBS, and 1% penicillin-streptomycin. All cell lines were maintained at 37° C. in a humidified 5% CO2, 95% air incubator.
The next day, compounds were diluted as follows: For 96-well assays, 13.5 μl of compound in DMSO were diluted using nine (9) serial 1:3 dilutions of 4.5 μl in 9 μl of DMSO. Medium (270 μl/well of RPMI with 10% FBS and 1% penicillin-streptomycin) was added to the plates. Aliquots (7 μl) were added to cells in the final assay giving a final DMSO concentration of 0.2%. For 384-well assays, 15 μl of compound in DMSO were diluted using nine (9) serial 1:3 dilutions of 5 μl in 10 μl of DMSO, followed by a further dilution of 5 μl of compound with 95 μl of medium, of which 2 μl are added to cells in the final assay giving a final DMSO concentration of 0.2%. Cells were incubated at 37° C., 5% CO2 for 3 days.
Total ATP was measured (as a surrogate estimate of cell number) using CellTiter-Glo® (Promega G7571) reagent. Briefly, plates were removed from the incubator and allowed to equilibrate to room temperature for 30 minutes. CellTiter-Glo® (25 μl or 55 μl for 384-well or 96-well assays, respectively) reagent was added to each well and plates were shaken on an orbital plate shaker for 2 minutes. Plates were incubated without shaking for a further 30 minutes and read on an LJL Analyst GT reader in luminometer mode with an integration time of 0.5 seconds per well. Percent inhibition of cell growth was calculated relative to DMSO vehicle-treated control wells.

As to `CCNc1nc(-c2cc(C)cc(OC)c2)c(-c2ccnc(Nc3ccc(N4CCN(CCS(C)(=O)=O)CC4)c(F)c3)n2)s1` [Example 27, 4-{2-(Ethylamino)-4-[3-methyl-5-(methyloxy)phenyl]-1,3-thiazol-5-yl}-N-(3-fluoro-4-{4-[2-(methylsulfonyl)ethyl]-1-piperazinyl}phenyl)-2-pyrimidinamine], the IC50 in the assay with SK-MEL-3 tumor cells is below 500 nM; in the assay on HT-29 tumor cells, below 500 nM; on ErbB2, above 1000 nM; in the assay with SK-MEL-28 tumor cells, below 500 nM; with A375P tumor cells, below 500 nM; in the assay on Colo205 tumor cells it was below 500 nM. In addition, the IC50 on EGFR was above 1000 nM; at B-Raf, below 100 nM.

In the case of `CCNc1nc(-c2cccc(OC)c2)c(-c2ccnc(Nc3ccc(OCCN4CCCC4)c(F)c3)n2)s1` [Example 72, 4-{2-(Ethylamino)-4-[3-(methyloxy)phenyl]-1,3-thiazol-5-yl}-N-(3-fluoro-4-{[2-(1-pyrrolidinyl)ethyl]oxy}phenyl)-2-pyrimidinamine], the IC50 in the assay with SK-MEL-3 tumor cells was below 500 nM; in the assay with HT-29 tumor cells, below 500 nM; on ErbB2 it was below 100 nM; in the assay with SK-MEL-28 tumor cells, 500 to 5000 nM; with A375P tumor cells, below 500 nM; in the assay on Colo205 tumor cells, below 500 nM. Further, the IC50 against EGFR and on B-Raf was below 100 nM each time.

In the case of `CCNc1nc(-c2cc(OC)cc(OC)c2)c(-c2ccnc(Nc3ccc(N4CCOCC4)c(F)c3)n2)o1` [Example 118], the IC50 was 500 to 5000 nM with SK-MEL-3 tumor cells; 500 to 5000 nM with HT-29 tumor cells; above 1000 nM against ErbB2; 500 to 5000 nM in the assay on SK-MEL-28 tumor cells; 500 to 5000 nM with A375P tumor cells; 500 to 5000 nM in the assay with Colo205 tumor cells. Further, the results for the IC50 against EGFR and on B-Raf were above 1000 nM and below 100 nM, respectively.

`CCNc1nc(-c2cccc(OC)c2)c(-c2ccnc(Nc3ccc(OC4CCN(CCS(C)(=O)=O)CC4)c(F)c3)n2)s1` [Example 41, 4-{2-(Ethylamino)-4-[3-(methyloxy)phenyl]-1,3-thiazol-5-yl}-N-[3-fluoro-4-({1-[2-(methylsulfonyl)ethyl]-4-piperidinyl}oxy)phenyl]-2-pyrimidinamine]: the IC50 was below 500 nM with SK-MEL-3 tumor cells; below 500 nM in the assay on HT-29 tumor cells; above 1000 nM at ErbB2; below 500 nM in the assay with SK-MEL-28 tumor cells; below 500 nM with A375P tumor cells; below 500 nM in the assay on Colo205 tumor cells. In addition, the values for the IC50 against EGFR and on B-Raf were 100 to 1000 nM and below 100 nM, respectively.

Regarding `COCCNc1nc(-c2cccc(OC)c2)c(-c2ccnc(Nc3ccc(N4CCOCC4)c(Cl)c3)n2)s1` [Example 43, N-[3-Chloro-4-(4-morpholinyl)phenyl]-4-{2-{[2-(methyloxy)ethyl]amino}-4-[3-(methyloxy)phenyl]-1,3-thiazol-5-yl}-2-pyrimidinamine hydrochloride], the IC50 was below 500 nM in the assay on SK-MEL-3 tumor cells; below 500 nM with HT-29 tumor cells; below 100 nM on ErbB2; above 5000 nM with SK-MEL-28 tumor cells; below 500 nM in the assay on A375P tumor cells; 500 to 5000 nM with Colo205 tumor cells. For the same compound, the IC50 against EGFR and on B-Raf was below 100 nM throughout.

As for `CCNc1nc(-c2cccc(O)c2)c(-c2ccnc(Nc3ccc(OCCN4CCCC4)c(Cl)c3)n2)s1` [Example 44], the IC50 is below 500 nM with SK-MEL-3 tumor cells; below 500 nM with HT-29 tumor cells; below 100 nM against ErbB2; below 500 nM in the assay with SK-MEL-28 tumor cells; below 500 nM in the assay with A375P tumor cells; below 500 nM in the assay with Colo205 tumor cells. In addition, the IC50 on EGFR and at B-Raf was below 100 nM in each case.

On to `CCNc1nc(-c2cc(C)cc(OC)c2)c(-c2ccnc(Nc3ccc(N4CCOCC4)nc3)n2)s1` [Example 35, 4-{2-(Ethylamino)-4-[3-methyl-5-(methyloxy)phenyl]-1,3-thiazol-5-yl}-N-[6-(4-morpholinyl)-3-pyridinyl]-2-pyrimidinamine], for which the IC50 with SK-MEL-3 tumor cells was below 500 nM; with HT-29 tumor cells it was below 500 nM; against ErbB2 it was above 1000 nM; in the assay with SK-MEL-28 tumor cells it was below 500 nM; with A375P tumor cells, below 500 nM; in the assay on Colo205 tumor cells, below 500 nM. Besides, the IC50 against EGFR was above 1000 nM; on B-Raf, below 100 nM.

With `CCNc1nc(-c2cc(OC)cc(OC)c2)c(-c2ccnc(Nc3ccc(OC4CCN(CCO)CC4)c(F)c3)n2)o1` [Example 124], the IC50 in the assay on SK-MEL-3 tumor cells is below 500 nM; in the assay with HT-29 tumor cells, below 500 nM; at ErbB2, above 1000 nM; in the assay with SK-MEL-28 tumor cells it was 500 to 5000 nM; with A375P tumor cells, 500 to 5000 nM; in the assay on Colo205 tumor cells, 500 to 5000 nM. For the same compound, the IC50 is above 1000 nM on EGFR and below 100 nM on B-Raf.

Turning to `CCNc1nc(-c2cc(C)cc(OC)c2)c(-c2ccnc(Nc3ccc(N4CCOCC4)c(F)c3)n2)s1` [Example 28, 4-{2-(Ethylamino)-4-[3-methyl-5-(methyloxy)phenyl]-1,3-thiazol-5-yl}-N-[3-fluoro-4-(4-morpholinyl)phenyl]-2-pyrimidinamine], the IC50 with SK-MEL-3 tumor cells is below 500 nM; in the assay with HT-29 tumor cells it was below 500 nM; against ErbB2, above 1000 nM; in the assay on SK-MEL-28 tumor cells, below 500 nM; in the assay on A375P tumor cells, below 500 nM; with Colo205 tumor cells, below 500 nM. Also, the figures for the IC50 at EGFR and at B-Raf were above 1000 nM and below 100 nM, respectively.

For `CCNc1nc(-c2cc(OC)cc(OC)c2)c(-c2ccnc(Nc3ccc(OC4CCN(CCS(C)(=O)=O)CC4)c(C)c3)n2)o1` [Example 87], the IC50 with SK-MEL-3 tumor cells is 500 to 5000 nM; in the assay on HT-29 tumor cells, 500 to 5000 nM; on ErbB2, above 1000 nM; in the assay with SK-MEL-28 tumor cells, 500 to 5000 nM; in the assay with A375P tumor cells, 500 to 5000 nM; with Colo205 tumor cells, 500 to 5000 nM. Also, the IC50 is above 1000 nM against EGFR and below 100 nM on B-Raf.

As to `CCNc1nc(-c2cccc(OC)c2)c(-c2ccnc(Nc3ccc(OCCN(C)C)c(C)c3)n2)s1` [Example 77, N-(4-{[2-(Dimethylamino)ethyl]oxy}-3-methylphenyl)-4-{2-(ethylamino)-4-[3-(methyloxy)phenyl]-1,3-thiazol-5-yl}-2-pyrimidinamine], the IC50 is below 500 nM with SK-MEL-3 tumor cells; below 500 nM in the assay on HT-29 tumor cells; below 100 nM on ErbB2; 500 to 5000 nM in the assay on SK-MEL-28 tumor cells; below 500 nM with A375P tumor cells; below 500 nM with Colo205 tumor cells. Also, the IC50 against EGFR and on B-Raf was below 100 nM in each case.

As for `CCNc1nc(-c2cc(C)cc(OC)c2)c(-c2ccnc(Nc3ccc(N4CCN(C(C)=O)CC4)nc3)n2)s1` [Example 36, N-[6-(4-Acetyl-1-piperazinyl)-3-pyridinyl]-4-{2-(ethylamino)-4-[3-methyl-5-(methyloxy)phenyl]-1,3-thiazol-5-yl}-2-pyrimidinamine], the IC50 in the assay on SK-MEL-3 tumor cells was below 500 nM; in the assay with HT-29 tumor cells, below 500 nM; against ErbB2, above 1000 nM; in the assay on SK-MEL-28 tumor cells it was below 500 nM; in the assay on A375P tumor cells it was below 500 nM; with Colo205 tumor cells, below 500 nM. Moreover, the IC50 on EGFR was above 1000 nM; on B-Raf it was below 100 nM.
